From ChEMBL document CHEMBL1134923, “Novel semi-synthetic glycopeptide antibiotics active against methicillin-resistant staphylococcus aureus (MRSA) and vancomycin-resistant Enterococci (VRE): doubly-modified water-soluble derivatives of chloroorienticin B” (Bioorg Med Chem Lett, 2002)
Values after ≈ are worked out from the molar mass of the structure shown.

What was measured:
Enterococcus faecalis = test: Minimum Inhibitory Concentration against Enterococcus faecalis SR-7914 (VRE) was determined; format: functional
Enterococcus faecium = test: Minimum Inhibitory Concentration against Enterococcus faecium SR-7917 (VRE) was determined; format: functional
Staphylococcus aureus = test: Minimum Inhibitory Concentration against Staphylococcus aureus SR-3637 (MRSA) was determined; format: functional
[1] = Solubility in water was determined; format: physicochemical

| MIC (Enterococcus faecalis) [µg/mL] | MIC (Enterococcus faecium) [µg/mL] | MIC (Staphylococcus aureus) [µg/mL] | SMILES | Solubility [1] [%] |
| --- | --- | --- | --- | --- |
| 25 (≈ 15.1 µM) | 12.5 (≈ 7.56 µM) | 0.39 (≈ 0.236 µM) | CCCCCCCOc1ccc(CN[C@@]2(C)C[C@H](O[C@@H]3c4ccc(c(Cl)c4)Oc4cc5cc(c4O[C@@H]4O[C@H](CO)[C@@H](O)[C@H](O)[C@H]4O)Oc4ccc(cc4Cl)[C@@H](O)[C@@H](NC(=O)[C@@H](CC(C)C)NC)C(=O)N[C@@H](CC(N)=O)C(=O)N[C@H]5C(=O)NC4C(=O)NC3C(=O)N[C@@H](C(=O)O)c3cc(O)cc(O)c3-c3cc4ccc3O)O[C@@H](C)[C@@H]2O)cc1 (some centres not stated) |  |
| 12.5 (≈ 7.58 µM) | 6.25 (≈ 3.79 µM) | 0.1 (≈ 0.0606 µM) | CN[C@H](CC(C)C)C(=O)N[C@H]1C(=O)N[C@@H](CC(N)=O)C(=O)N[C@H]2C(=O)NC3C(=O)NC(C(=O)N[C@@H](C(=O)O)c4cc(O)cc(O)c4-c4cc3ccc4O)[C@H](O[C@H]3C[C@](C)(NCc4ccc(-c5ccc(Cl)cc5)cc4)[C@@H](O)[C@H](C)O3)c3ccc(c(Cl)c3)Oc3cc2cc(c3O[C@@H]2O[C@H](CO)[C@@H](O)[C@H](O)[C@H]2O)Oc2ccc(cc2Cl)[C@H]1O (some centres not stated) |  |
| 12.5 (≈ 7.47 µM) | 6.25 (≈ 3.73 µM) | 0.2 (≈ 0.119 µM) | CN[C@H](CC(C)C)C(=O)N[C@H]1C(=O)N[C@@H](CC(N)=O)C(=O)N[C@H]2C(=O)NC3C(=O)NC(C(=O)N[C@@H](C(=O)O)c4cc(O)cc(O)c4-c4cc3ccc4O)[C@H](O[C@H]3C[C@](C)(NCc4ccc(C#Cc5ccc(Cl)cc5)cc4)[C@@H](O)[C@H](C)O3)c3ccc(c(Cl)c3)Oc3cc2cc(c3O[C@@H]2O[C@H](CO)[C@@H](O)[C@H](O)[C@H]2O)Oc2ccc(cc2Cl)[C@H]1O (some centres not stated) |  |
| 6.25 (≈ 3.73 µM) | 6.25 (≈ 3.73 µM) | 0.2 (≈ 0.119 µM) | CN[C@H](CC(C)C)C(=O)N[C@H]1C(=O)N[C@@H](CC(N)=O)C(=O)N[C@H]2C(=O)NC3C(=O)NC(C(=O)N[C@@H](C(=O)O)c4cc(O)cc(O)c4-c4cc3ccc4O)[C@H](O[C@H]3C[C@](C)(NCc4ccc(/C=C/c5ccc(Cl)cc5)cc4)[C@@H](O)[C@H](C)O3)c3ccc(c(Cl)c3)Oc3cc2cc(c3O[C@@H]2O[C@H](CO)[C@@H](O)[C@H](O)[C@H]2O)Oc2ccc(cc2Cl)[C@H]1O (some centres not stated) | < 1 |
| 12.5 (≈ 7.39 µM) | 3.13 (≈ 1.85 µM) | 0.39 (≈ 0.231 µM) | CN[C@H](CC(C)C)C(=O)N[C@H]1C(=O)N[C@@H](CC(N)=O)C(=O)N[C@H]2C(=O)NC3C(=O)NC(C(=O)N[C@@H](C(=O)O)c4cc(O)cc(O)c4-c4cc3ccc4O)[C@H](O[C@H]3C[C@](C)(NCc4ccc(-c5ccc(-c6ccccc6)cc5)cc4)[C@@H](O)[C@H](C)O3)c3ccc(c(Cl)c3)Oc3cc2cc(c3O[C@@H]2O[C@H](CO)[C@@H](O)[C@H](O)[C@H]2O)Oc2ccc(cc2Cl)[C@H]1O (some centres not stated) |  |
| 12.5 (≈ 7.66 µM) | 6.25 (≈ 3.83 µM) | 0.2 (≈ 0.123 µM) | CCCCCCCCCCCCCN[C@@]1(C)C[C@H](O[C@@H]2c3ccc(c(Cl)c3)Oc3cc4cc(c3O[C@@H]3O[C@H](CO)[C@@H](O)[C@H](O)[C@H]3O)Oc3ccc(cc3Cl)[C@@H](O)[C@@H](NC(=O)[C@@H](CC(C)C)NC)C(=O)N[C@@H](CC(N)=O)C(=O)N[C@H]4C(=O)NC3C(=O)NC2C(=O)N[C@@H](C(=O)O)c2cc(O)cc(O)c2-c2cc3ccc2O)O[C@@H](C)[C@@H]1O (some centres not stated) |  |

| SMILES | MIC (Enterococcus faecalis) [µg/mL] | MIC (Enterococcus faecium) [µg/mL] | MIC (Staphylococcus aureus) [µg/mL] | Solubility [1] [%] |
| --- | --- | --- | --- | --- |
| CN[C@H](CC(C)C)C(=O)N[C@H]1C(=O)N[C@@H](CC(N)=O)C(=O)N[C@H]2C(=O)NC3C(=O)NC(C(=O)N[C@@H](C(=O)O)c4cc(O)cc(O)c4-c4cc3ccc4O)[C@H](O[C@H]3C[C@](C)(N)[C@@H](O)[C@H](C)O3)c3ccc(c(Cl)c3)Oc3cc2cc(c3O[C@@H]2O[C@H](CO)[C@@H](O)[C@H](O)[C@H]2O)Oc2ccc(cc2Cl)[C@H]1O (some centres not stated) | > 100 | > 100 | 0.78 (≈ 0.538 µM) | > 10 |
| CN[C@H](CC(C)C)C(=O)N[C@H]1C(=O)N[C@@H](CC(N)=O)C(=O)N[C@H]2C(=O)N[C@H]3C(=O)N[C@H](C(=O)N[C@H](C(=O)O)c4cc(O)cc(O)c4-c4cc3ccc4O)[C@H](O)c3ccc(c(Cl)c3)Oc3cc2cc(c3O[C@@H]2O[C@H](CO)[C@@H](O)[C@H](O)[C@H]2O[C@H]2C[C@](C)(N)[C@H](O)[C@H](C)O2)Oc2ccc(cc2Cl)[C@H]1O [VANCOMYCIN] | > 100 | > 100 | 1.56 (≈ 1.08 µM) | > 10 |
